Tested on: patients with advanced or recurrent endometrial cancer (EC)
Experiment: Phase II study of E7080 in patients with advanced or recurrent endometrial cancer: tumor response (ORR) and survival (PFS, OS)
Assay type: in vivo, human
Protocol: Purpose: Angiogenesis is regulated by signaling through multiple growth factor receptors, such as VEGF receptor and FGF receptor. VEGF receptor signaling is also associated with immune cell function. E7080 is an oral angiogenesis inhibitor targeting multiple receptor tyrosine kinase; VEGFR1-3, FGFR1-4, RET, KIT, and PDGFRβ. A phase II study was performed in patients with advanced or recurrent endometrial cancer (EC) following 1 or 2 prior platinum-based treatments (Tx). The importance of angiogenesis in EC highlights the need to understand clinical mechanisms of escape from anti-angiogenic therapy. This clinical biomarker analysis was conducted to identify predictive markers of clinical benefit in EC patients upon E7080 treatment. Circulating cytokine and angiogenic factors (CAFs) can be measured in blood samples using ELISA and multiplex assay platforms. The CAFs examined in this study are listed below in Table 2. Numbers in parenthesis indicate bead region for each analyte.
The purpose of this analysis was to measure cytokine, chemokine and angiogenic factors in blood samples, such as plasma and serum, obtained from patients in clinical trials at both pre- and post-treatment with E7080 and to identify blood biomarkers which can be used to predict whether patients will respond to treatment with E7080. For these analyses, the following criteria of response were employed, namely:
(a) Tumor response: objective response rate (ORR) and % of maximum tumor shrinkage (MTS); and
(b) Survival Benefits: progression free survival (PFS)/overall survival (OS).
Materials and Methods: Patients who had metastatic/unresectable endometrial cancer after 1 or 2 prior platinum-based treatments received lenvatinib until disease progression or development of unmanageable toxicities. Patients received E7080 at a starting dose of 24 mg orally once daily in 28 day cycles. 133 patients were treated and evaluated for efficacy and molecular correlative analysis. This study was a part of the Phase 2 multicenter study of lenvatinib (ClinicalTrial.gov Identifier: NCT01111461). Baseline and post-treatment plasma samples were collected for molecular analyses. Plasma samples were collected at Cycle 1 Day 1 (pre-treatment) and Cycle 2 Day 1 (i.e., day […] post-treatment). Six mL of intravenous blood was drawn into EDTA vacutainer tubes. The tubes were gently inverted 6-8 times and then centrifuged at 3000 RPM for 10 minutes to separate the plasma from the red cell layer. Plasma was collected from the tube and dispensed into a 3.5 mL cryovial using a transfer pipette, and then stored immediately at −20° C. The plasma samples were shipped on dry ice and then ultimately transferred to −80° C. storage. Plasma samples from 122 patients were used for blood biomarker analysis. Serum from Cycle 1 day 1 (baseline), and cycle 2 day 1 were used in this analysis. The association of progression free survival (PFS) and overall survival (OS) were analyzed. Plasma samples were tested in batch format where all timepoints from the same subject were assayed on the same day. On the day of assay, samples were removed from −80° C. and allowed to thaw and reach room temperature. The plasma samples were tested in a panel of ELISA and multiplex kit as per the manufacturer's instructions. The ELISA plates were measured using a Molecular Devices UVmax kinetic microplate reader with SoftMax Pro 5.2 software. The multiplex assays were performed using the Bio-Rad Bio-Plex system with Bio-Plex Manager 4.1 software. Final protein concentrations (pg/mL) were calculated from the standard curve for each assay. Depending on the assay, plasma samples may have been diluted in assay buffer prior to testing. In these cases, protein concentrations were multiplied by the dilution factor.
A cut-off value of Ang-2 was used to test if patients with baseline Ang-2 levels have better clinical outcomes, such as ORR, PFS, and OS. […]

[1] = sub-group with high baseline Ang-2 (>2082 pg/ml), 98 patients
[2] = sub-group with low baseline Ang-2 (<2082 pg/ml), 24 patients
[3] = without stratification based on Ang-2 levels

Structure (SMILES): COc1cc2nccc(Oc3ccc(NC(=O)NC4CC4)c(Cl)c3)c2cc1C(N)=O [E7080, 4-(3-chloro-4-(cyclopropylaminocarbonyl)aminophenoxy)-7-methoxy-6-quinolinecarboxamide]
- Progression-Free Survival (months) Median (Full Set Analysis (N = 133)): 5.4 months
- Objective Response (CR + PR) (Full Set Analysis (N = 133), 24 mg orally once daily): 21.8%
- Objective Response (CR + PR) (High Ang-2 ≥2082.51 (N = 98)): 17.8%
- Overall Survival (months) Median (High Ang-2 ≥2082.51 (N = 98)): 8.9 months
- Progression-Free Survival (months) Median (High Ang-2 ≥2082.51 (N = 98)): 3.7 months
- Objective Response (CR + PR) (Low Ang-2 <2082.51 (N = 24)): 60.9%
- Progression-Free Survival (months) Median (Low Ang-2 <2082.51 (N = 24)): 9.5 months
- Median PFS (baseline ANG2(90), 0-25% subgroup): 225 days
- mOS (day) in each quartile (baseline ANG2(90), 1st (low) quartile): 541 days
- mOS (day) in each quartile (baseline ANG2(90), 2nd quartile): 353 days
- mOS (day) in each quartile (baseline ANG2(90), 3rd quartile): 256 days
- mOS (day) in each quartile (baseline ANG2(90), 4th (high) quartile): 260 days
- Median PFS (baseline ANG2(90), 25-50% subgroup): 167 days
- Median PFS (baseline ANG2(90), 50-75% subgroup): 145 days
- Median PFS (baseline ANG2(90), 75-100% subgroup): 77 days
- Median PFS (baseline Ang-2, 0-25% subgroup): 284 days
- mOS (day) in each quartile (baseline Ang-2, 1st (low) quartile): 541 days
- mOS (day) in each quartile (baseline Ang-2, 2nd quartile): 289 days
- mOS (day) in each quartile (baseline Ang-2, 3rd quartile): 268 days
- mOS (day) in each quartile (baseline Ang-2, 4th (high) quartile): 173 days
- Median PFS (baseline Ang-2, 25-50% subgroup): 167 days
- Median PFS (baseline Ang-2, 50-75% subgroup): 112 days
- Median PFS (baseline Ang-2, 75-100% subgroup): 77 days
- Median PFS (baseline HGF(86), 0-25% subgroup): 225 days
- mOS (day) in each quartile (baseline HGF(86), 1st (low) quartile): 567 days
- mOS (day) in each quartile (baseline HGF(86), 2nd quartile): 452 days
- mOS (day) in each quartile (baseline HGF(86), 3rd quartile): 273 days
- mOS (day) in each quartile (baseline HGF(86), 4th (high) quartile): 253 days
- Median PFS (baseline HGF(86), 25-50% subgroup): 205 days
- Median PFS (baseline HGF(86), 50-75% subgroup): 145 days
- Median PFS (baseline HGF(86), 75-100% subgroup): 109 days
- Median PFS (baseline IL-8(40), 0-25% subgroup): 281 days
- mOS (day) in each quartile (baseline IL-8(40), 2nd quartile): 315 days
- mOS (day) in each quartile (baseline IL-8(40), 3rd quartile): 340 days
- mOS (day) in each quartile (baseline IL-8(40), 4th (high) quartile): 127 days
- Median PFS (baseline IL-8(40), 25-50% subgroup): 222 days
- Median PFS (baseline IL-8(40), 50-75% subgroup): 145 days
- Median PFS (baseline IL-8(40), 75-100% subgroup): 71 days
- Median PFS (baseline IP-10(56), 0-25% subgroup): 167 days
- Median PFS (baseline IP-10(56), 25-50% subgroup): 174 days
- Median PFS (baseline IP-10(56), 50-75% subgroup): 220 days
- Median PFS (baseline IP-10(56), 75-100% subgroup): 77 days
- Median PFS (baseline MCP-1(58), 0-25% subgroup): 227 days
- mOS (day) in each quartile (baseline MCP-1(58), 1st (low) quartile): 463 days
- mOS (day) in each quartile (baseline MCP-1(58), 2nd quartile): 393 days
- mOS (day) in each quartile (baseline MCP-1(58), 3rd quartile): 340 days
- mOS (day) in each quartile (baseline MCP-1(58), 4th (high) quartile): 192 days
- Median PFS (baseline MCP-1(58), 25-50% subgroup): 155 days
- Median PFS (baseline MCP-1(58), 50-75% subgroup): 167 days
- Median PFS (baseline MCP-1(58), 75-100% subgroup): 111 days
- mOS (day) in each quartile (baseline MIP-1a(64), 2nd quartile): 293 days
- mOS (day) in each quartile (baseline MIP-1a(64), 3rd quartile): 353 days
- mOS (day) in each quartile (baseline MIP-1a(64), 4th (high) quartile): 264 days
- Median PFS (baseline MIP-la(64), 0-25% subgroup): 210 days
- Median PFS (baseline MIP-la(64), 25-50% subgroup): 155 days
- Median PFS (baseline MIP-la(64), 50-75% subgroup): 117 days
- Median PFS (baseline MIP-la(64), 75-100% subgroup): 166 days
- Median PFS (baseline PGF(91), 0-25% subgroup): 170 days
- mOS (day) in each quartile (baseline PGF(91), 2nd quartile): 350 days
- mOS (day) in each quartile (baseline PGF(91), 3rd quartile): 393 days
- mOS (day) in each quartile (baseline PGF(91), 4th (high) quartile): 173 days
- Median PFS (baseline PGF(91), 25-50% subgroup): 174 days
- Median PFS (baseline PGF(91), 50-75% subgroup): 218 days
- Median PFS (baseline PGF(91), 75-100% subgroup): 77 days
- Median PFS (baseline TNFa(80), 0-25% subgroup): 282 days
- mOS (day) in each quartile (baseline TNFa(80), 1st (low) quartile): 654 days
- mOS (day) in each quartile (baseline TNFa(80), 2nd quartile): 353 days
- mOS (day) in each quartile (baseline TNFa(80), 3rd quartile): 393 days
- mOS (day) in each quartile (baseline TNFa(80), 4th (high) quartile): 218 days
- Median PFS (baseline TNFa(80), 25-50% subgroup): 117 days
- Median PFS (baseline TNFa(80), 50-75% subgroup): 166 days
- Median PFS (baseline TNFa(80), 75-100% subgroup): 112 days
- Median PFS (baseline Tie-2, 0-25% subgroup): 273 days
- mOS (day) in each quartile (baseline Tie-2, 1st (low) quartile): 541 days
- mOS (day) in each quartile (baseline Tie-2, 2nd quartile): 282 days
- mOS (day) in each quartile (baseline Tie-2, 3rd quartile): 291 days
- mOS (day) in each quartile (baseline Tie-2, 4th (high) quartile): 192 days
- Median PFS (baseline Tie-2, 25-50% subgroup): 165 days
- Median PFS (baseline Tie-2, 50-75% subgroup): 155 days
- Median PFS (baseline Tie-2, 75-100% subgroup): 112 days
- Median PFS (baseline VEGFA(100), 0-25% subgroup): 158 days
- mOS (day) in each quartile (baseline VEGFA(100), 1st (low) quartile): 350 days
- mOS (day) in each quartile (baseline VEGFA(100), 2nd quartile): 541 days
- mOS (day) in each quartile (baseline VEGFA(100), 3rd quartile): 365 days
- mOS (day) in each quartile (baseline VEGFA(100), 4th (high) quartile): 260 days
- Median PFS (baseline VEGFA(100), 25-50% subgroup): 205 days
- Median PFS (baseline VEGFA(100), 50-75% subgroup): 165 days
- Median PFS (baseline VEGFA(100), 75-100% subgroup): 83 days
- Median PFS (baseline sIL-2Ra(76), 0-25% subgroup): 210 days
- mOS (day) in each quartile (baseline sIL-2Ra(76), 1st (low) quartile): 562 days
- mOS (day) in each quartile (baseline sIL-2Ra(76), 2nd quartile): 295 days
- mOS (day) in each quartile (baseline sIL-2Ra(76), 3rd quartile): 387 days
- mOS (day) in each quartile (baseline sIL-2Ra(76), 4th (high) quartile): 161 days
- Median PFS (baseline sIL-2Ra(76), 25-50% subgroup): 161 days
- Median PFS (baseline sIL-2Ra(76), 50-75% subgroup): 177 days
- Median PFS (baseline sIL-2Ra(76), 75-100% subgroup): 72.5 days
- ORR (sub-group with high baseline Ang-2 (>2082 pg/ml)): 18%
- mean OS [1]: 8.9 months
- mean PFS [1]: 3.7 months
- ORR (sub-group with low baseline Ang-2 (<2082 pg/ml)): 61%
- mean OS [2]: 23 months
- mean PFS [2]: 9.5 months
- ORR [3]: 21.1%
- mOS [3]: 10.6 months
- mPFS [3]: 5.4 months
